Structures are written as SMILES.

The target of assay [1] is Prostaglandin E2 receptor EP2 subtype (Homo sapiens, UniProt P43116). The assay can be described thus: hEP2 cAMP Assay.
Method: Plate is pre-incubated 45 minutes at room temperature. […] Plate is incubated 30 minutes at room temperature. […] For each compound concentration the percentage of cAMP compared to DMSO control value as average±STDEV (each concentration is measured in duplicate) is calculated.
Assay [2] has as its target Prostaglandin E2 receptor EP4 subtype (Homo sapiens, UniProt P35408). The assay can be described thus: hEP4 cAMP Assay. The method, then:
Plate is pre-incubated 45 minutes at room temperature. Subsequently, 2.5 microliters of PGE2 (final conc. 6 nM) are transferred into the assay plate. Plate is incubated 30 minutes at room temperature.

Sequence of Prostaglandin E2 receptor EP2 subtype (P43116 whole entry): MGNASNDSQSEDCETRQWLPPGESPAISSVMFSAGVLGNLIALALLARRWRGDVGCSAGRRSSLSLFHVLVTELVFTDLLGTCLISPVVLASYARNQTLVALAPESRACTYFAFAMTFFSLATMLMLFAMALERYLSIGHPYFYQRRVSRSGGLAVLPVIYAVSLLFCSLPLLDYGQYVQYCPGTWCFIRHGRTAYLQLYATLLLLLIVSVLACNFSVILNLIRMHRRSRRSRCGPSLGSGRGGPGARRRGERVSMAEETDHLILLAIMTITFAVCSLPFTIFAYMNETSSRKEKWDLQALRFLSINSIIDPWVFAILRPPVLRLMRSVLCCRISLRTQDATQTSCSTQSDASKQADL
Sequence of Prostaglandin E2 receptor EP4 subtype (P35408 whole entry): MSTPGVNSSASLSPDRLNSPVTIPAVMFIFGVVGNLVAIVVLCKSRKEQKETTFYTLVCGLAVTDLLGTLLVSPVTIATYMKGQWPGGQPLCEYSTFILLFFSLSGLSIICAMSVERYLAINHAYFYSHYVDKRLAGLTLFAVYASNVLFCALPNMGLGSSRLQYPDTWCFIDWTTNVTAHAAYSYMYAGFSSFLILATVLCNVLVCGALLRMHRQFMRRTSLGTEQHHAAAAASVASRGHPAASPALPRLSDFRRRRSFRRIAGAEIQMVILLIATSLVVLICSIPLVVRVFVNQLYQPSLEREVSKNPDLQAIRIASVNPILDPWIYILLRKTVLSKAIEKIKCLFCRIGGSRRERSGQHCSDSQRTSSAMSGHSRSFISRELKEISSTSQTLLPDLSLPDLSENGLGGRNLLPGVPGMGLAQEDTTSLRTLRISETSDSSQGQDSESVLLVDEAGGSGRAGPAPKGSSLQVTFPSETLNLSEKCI

As for `CCOc1cc(-c2cc(NCCn3c(C)cc4c(OC)ccc(F)c43)ncn2)ccc1C(=O)NOCc1ccccc1` [US12011444, Example 766], the IC50 in assay [1] was 57 nM; in assay [2], 80 nM.

As to `COc1ccc(F)c2c1cc(C)n2CCNc1cc(-c2ccc(C(=O)O)c(C(C)(C)C)c2)ncn1` [US12011444, Example 535], the values for the half-inhibitory concentration (IC50) in assay [1] and in assay [2] were 68 nM and 136 nM, respectively.

For `CCOc1cc(-c2cc(NCCn3c(C)cc4c(OC)ccc(F)c43)ncn2)ccc1C(=O)NOCCO` [US12011444, Example 769], the IC50 in assay [1] stood at 11 nM; in assay [2], 259 nM.

On to `COc1cc(F)cc2c1cc(C)n2CCNc1cc(-c2cc(O)cs2)ncn1` [US12011444, Example 801], for which the 50% inhibitory concentration (IC50) in assay [1] worked out at 20 nM; in assay [2], 139 nM.

For the molecule `Cc1cc(F)cc2c1cc(C)n2CCNc1cc(-c2cccc(-n3cccn3)c2)ncn1` [US12011444, Example 729], the results for the IC50 in assay [1] and in assay [2] were 45 nM and 783 nM, respectively.

Regarding `CCOc1cc(-c2cc(NCCn3c(C)cc4c(C)ccc(F)c43)ncn2)ccc1C(=O)NOCCO` [US12011444, Example 771], the IC50 in assay [1] stood at 19 nM; in assay [2] it was 310 nM.

With `Cc1ccc(F)c2c1cc(C)n2CCNc1cc(-c2ccc3c(c2)CNC3=O)ncn1` [US12011444, Example 65], the half-inhibitory concentration (IC50) in assay [1] is 41 nM; in assay [2] it was 697 nM.

For `COc1ccc(F)c2c1cc(C)n2CCNc1cc(-c2ccc(C(=O)O)c(N)c2)ncn1` [US12011444, Example 214], the IC50 stood at 38 nM in assay [1] and 786 nM in assay [2].

As to `COc1cc(F)c(F)c2c1cc(C)n2CCNc1cc(-c2ccc3oc(C)nc3c2)ncn1` [US12011444, Example 689], the 50% inhibitory concentration (IC50) in assay [1] was determined as 211 nM; in assay [2], 558 nM.

`Cc1cc(F)cc2c1cc(C)n2CCNc1cc(-c2ccc(C(=O)O)c(NCC(F)(F)F)c2)ncn1` [US12011444, Example 559]: the half-maximal inhibitory concentration (IC50) in assay [1] was 4 nM; in assay [2] it was 247 nM.
